# Measured values taken from paper PMC3172082 (Nature, 2009).
# Where “and” joins values, the source holds several entries; their conditions need not be identical. Equal entries are not always repeated.
# Legend:
# mycobacterial proteasome = mycobacterial proteasome (Mycobacterium bovis, UniProt A1KKF3); assay: cell-based; set-up: species or system Mycobacterium bovis var. BCG; conditions: for inhibition at 50 µM: read-out: inhibition of mycobacterial proteasome activity in intact BCG
# Mtb Erdman = type: cell-based, Mycobacterium tuberculosis; conditions: non-replicating Mtb
# [1] = tested on: human monocyte-derived macrophages; assay: Cytotoxicity to human monocyte-derived macrophages; type: cell-based; conditions: 7 days incubation; GL5 and HT1171 up to 75 μM
# Mtb 20SOG = type: biochemical, Mycobacterium tuberculosis; conditions: by partition ratios
# BCG = type: cell-based, Mycobacterium bovis var. BCG
# Mtb20SOG = Mtb20SOG (Mycobacterium tuberculosis, UniProt P9WHT9); assay: High throughput screen, Mtb20SOG hydrolysis of Suc-LLVY-AMC; type: biochemical; conditions: 33 μM test compounds
# Sequence of Mtb20SOG (P9WHT9 whole entry, looked up): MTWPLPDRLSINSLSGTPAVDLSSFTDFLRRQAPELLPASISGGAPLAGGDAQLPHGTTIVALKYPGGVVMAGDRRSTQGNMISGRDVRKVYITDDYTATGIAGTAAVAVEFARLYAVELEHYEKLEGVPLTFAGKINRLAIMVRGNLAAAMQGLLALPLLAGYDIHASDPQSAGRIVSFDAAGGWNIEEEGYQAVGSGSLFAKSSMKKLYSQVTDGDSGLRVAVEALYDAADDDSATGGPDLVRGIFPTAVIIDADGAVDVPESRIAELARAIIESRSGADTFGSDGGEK
# Sequence of mycobacterial proteasome (A1KKF3 whole entry, looked up): as the sequence (P9WHT9 whole entry, looked up) above
Structure (SMILES),inhibition at 50 µM (mycobacterial proteasome),"mycobactericidal activity compared with GL5 and HT1171 (in words) (Mtb Erdman; DETA-NO, 4 days)",toxicity to human macrophages [1],fold more effective against Mtb proteasomes than human proteasomes (Mtb 20SOG),reduction of proteasome activity in intact BCG (mycobacterial proteasome),killing of BCG (in words) (BCG),"Mtb killed over 4 days in synergy with nitric oxide (Mtb Erdman; dose-dependent, 50 μM DETA-NO)",activity in screen against Mtb20SOG (Mtb20SOG)
"CC(C)C[C@H](NC(=O)[C@H](Cc1ccccc1)NC(=O)c1cnccn1)B(O)O [bortezomib, reference compound]",52%,less mycobactericidal,toxic,,,,,
"CSc1sc(C)cc1-c1nsc(=O)o1 [GL5, 5-(5-methyl-2-(methylthio)thiophen-3-yl)-1,3,4-oxathiazol-2-one]",~90%,,no apparent toxicity,> 1000 fold,> 80% and ~ 50%,killed BCG alone and in synergy with sub-bacteriostatic fluxes of nitric oxide,1.5-2.5 log10,
"Cc1cc(-c2nsc(=O)o2)c(S(C)(=O)=O)s1 [GL6, 5-(5-methyl-2-(methylsulfonyl)thiophen-3-yl)-1,3,4-oxathiazol-2-one]",,,,,,,,inactive
